{
  "source": "patent US20140056964A1",
  "about": "“GRANZYME B INHIBITOR COMPOSITIONS, METHODS AND USES FOR PROMOTING WOUND HEALING” (THE UNIVERSITY OF BRITISH COLUMBIA, priority 2010, published 2014)",
  "key": {"[1]": {"target": "T1, Granzyme B (Homo sapiens, UniProt P10144)", "T1 sequence (P10144 21-247)": "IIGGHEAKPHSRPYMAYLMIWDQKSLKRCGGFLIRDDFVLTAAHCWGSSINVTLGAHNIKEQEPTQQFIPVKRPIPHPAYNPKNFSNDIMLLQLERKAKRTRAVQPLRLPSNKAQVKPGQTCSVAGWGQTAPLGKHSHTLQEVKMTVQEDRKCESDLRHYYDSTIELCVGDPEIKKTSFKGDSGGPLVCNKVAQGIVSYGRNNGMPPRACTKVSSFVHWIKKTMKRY", "assay": "continuous colorimetric Granzyme B inhibition assay with substrate Ac-IEPD-pNA", "assay_type": "biochemical", "conditions": "substrate Ac-IEPD-pNA 20 μM, 37° C., pNA release at 405 nm", "experimental": "Small molecule libraries (ZINC—Irwin J J and Shoichet B K, 2005. J. Chem Inf Model 4591:177-182; NCI—Voigt, J. H. et al. J. Chem. Inf Comput. Sci. 2001, 41, 702-712) were screened in silico for candidate Granzyme B inhibitory compounds. Several candidate small molecule inhibitors were identified and subjected to an in vitro Granzyme B inhibition assay. More specifically, a continuous colormetric assay for Granzyme B activity was carried out with the substrate Ac-IEPD-pNA. Briefly, 8 ug/ml Granzyme B, 20 μM substrate, and increasing concentrations of the inhibitor of interest was incubated in a final reaction volume of 50 ul. The reaction buffer consisted of 50 mM HEPES pH 7.5, 10% sucrose, 0.1% CHAPS and 5 mM DTT and reactions were carried out at 37° C. pNA release and Granzyme B inhibition was monitored at 405 nm on a Tecan Safire microplate reader.\nAs detailed herein and as detailed in Tables A and B herein, candidate inhibitors, and IC50 concentration obtained from the inhibition assay are set out below."}, "[2]": {"target": "T2, purified human Granzyme B (Homo sapiens, UniProt P10144)", "T2 construct": "purchased Axxora, San Diego, Calif", "T2 sequence (P10144 21-247)": "as above", "assay": "proteoglycan cleavage assay (recombinant decorin, biglycan, betaglycan incubated with Granzyme B +/- inhibitor, SDS-PAGE)", "assay_type": "biochemical", "conditions": "for Granzyme B cleavage of decorin: 24 h, 30 ul, Coomassie Blue stain", "experimental": "For ECM cleavage assays, Granzyme B and/or the inhibitor 3,4-dichloroisocoumarin (DCI), were incubated for 4 and 24 hours at room temperature, with decorin, biglycan or soluble betaglycan and visualized by Ponceau staining. Cleavage fragments were subjected to Edman degradation for cleavage site identification.\nProteoglycan cleavage assays. The recombinant human PGs, decorin (0.5 μg, Abnova, Walnut, Calif.), biglycan and betaglycan (1.5-5 ug, R&D Systems, Minneapolis, Minn.) were incubated at room temperature for 24 h with 25-500 nM purified human Granzyme B (Axxora, San Diego, Calif.), in 50 mM Tris buffer, pH 7.4. For inhibitor studies, Granzyme B was incubated in the presence or absence of 200 μM of the serine protease inhibitor 3,4-dichloroisocoumarin (DCI; Santa Cruz Biotechnology Inc, Santa Cruz, Calif.) or inhibitor solvent control, dimethyl sulfoxide (DMSO; Sigma-Aldrich, St Louis, Mo.) for 4 h or 24 h. After incubation, proteins were denatured, separated on a 10% SDS-polyacrylamide gel and transferred to a nitrocellulose membrane. Ponceau stain (Fisher Scientific, Waltham, Mass.) was used to detect cleavage fragments.\nSamples were run on a 10% gel, imaged with Ponceau stain and scanned.\nIn this Example, incubations were performed at RT for 24 h in a total reaction volume of 30 ul. Samples were run on a 10% gel and imaged by Coomassic Blue stain. With reference to FIG. 17, the asterisk=full length protein.\nSamples were run on a 10% gel, imaged with Ponceau stain and scanned. […] DMSO vehicle control was not included due to redundancy. Asterisk=full length protein; Arrow=cleavage fragments. Obstruction in Granzyme B/Betaglycan lane affecting first 2 cleavage fragments."}, "[3]": {"target": "T1, Granzyme B", "assay": "TGF-β release assay from proteoglycan/TGF-β complexes (Western blot of supernatants)", "assay_type": "biochemical", "conditions": "for release of TGF-β from betaglycan/TGF-β complexes by Granzyme B: 20 ug/ml betaglycan, 10 ng TGF-β, 24 h at RT", "experimental": "Cytokine release was assessed in supernatants using Western blotting. TGF-β release assays were carried out using a method similar to that previously described for the MMPs (Imai et al. 1997). Briefly, decorin, biglycan and betaglycan (15 μg/mL) were coated onto 48 well tissue culture plastic plates and allowed to incubate overnight at 4° C. in PBS, pH 7.4. After blocking with 1% bovine serum albumin, 20 ng of active TGF-β1 per well (Peprotech Inc, Rocky Hill, N.J.) was added in DPBS containing calcium and magnesium (#14040, Invitrogen, Carlsbad, Calif.) for 5 h at RT. Granzyme B, with or without DCI, was then added to the wells. After 24 h, supernatants were removed, denatured, and run on a 15% SDS-PAGE gel. Once transferred to a nitrocellulose membrane and blocked with 10% skim milk, the membrane was probed using a rat anti-human TGF-β1 antibody (1:200, BD Biosciences, Franklin Lakes, N.J.) and IRDye® 800 conjugated affinity purified anti-Rat IgG (1:3000, Rockland Inc, Gilbertsville, Pa.). Bands were imaged using the Odyssey Infrared Imaging System (LI-COR Biotechnology, Lincoln, Nebr.). In this Example, 20 ug/ml betaglycan was coated onto 48 well plates and incubated with 10 ng of TGF-β. Excess TGF-β was washed off the plate and betaglycan/TGF-β complexes were incubated with Granzyme B+/− inhibitors for 24 h at RT. Supernatants (containing released TGF-β) were collected and Western blotted for TGF-β. There is little non-specific dissociation of TGF-β into supernatants in the absence of Granzyme B (2; see FIG. 16). TGF-β is released by Granzyme B after 24 h of incubation (4; see FIG. 16)."}, "[4]": {"test_system": "human coronary artery smooth muscle cells (HCASMC)", "assay": "Human coronary artery smooth muscle cell TGF-β bioavailability assay (SMAD-3 / Erk phosphorylation)", "assay_type": "cell-based", "conditions": "supernatants of betaglycan release assay (Granzyme B +/- DCI) on cells for 16 h", "experimental": "To determine if the TGF-β released by Granzyme B was active, supernatants from the above release assay were incubated on human coronary artery smooth muscle cells (HCASMC) and SMAD/Erk activation was examined by Western blotting. For bioavailability assays, HCASMCs (Clonetics/Lonza, Walkersville, Md.) at passage 3-5 were seeded in 6 well plates in smooth muscle cell growth media (SmGM, Clonetics) +5% fetal bovine serum (FBS, Invitrogen) and grown to confluence. At this time, cells were quiesced by serum removal for 24 h, after which time 150 μl of release assay supernatants (as described above) or a 10 ng TGF-β positive control were added to the cells for 16 h. Cell lysates were assessed by SDS-PAGE/Western blotting for phosphorylated-Erk 1/2 (p-Erk1/2; 1:1000, Cell Signaling Technology, Danvers, Mass.), total Erk 1/2 (t-Erk1/2; 1:1000, Cell Signaling Technology), phosphorylated-SMAD3 (p-SMAD3; 1:2000, Epitomics, Burlingame, Calif.), total SMAD3 (t-SMAD3; 1:500, BD Biosciences) and the loading controls β-actin (1:5000, Sigma-Aldrich) or β-tubulin (1:3000, Millipore, Billerica, Mass.). Secondary IRDye® 800 conjugated antibodies (1:3000, Rockland Inc) were utilized and imaged with the Odyssey Infrared Imaging System (LI-COR Biotechnology). […]"}, "[5]": {"target": "T1, Granzyme B", "assay": "fibronectin cleavage by Granzyme B +/- inhibitor", "assay_type": "biochemical", "conditions": "inhibitor at 3.12 nM", "experimental": "As shown in FIGS. 21A and B herein, incubations as described herein were performed with fibronectin (FN) and Granzyme B, both in the absence of inhibitor Willoughby 20 and in the presence of inhibitor Willoughby 20. Compound Willoughby 20 inhibits Granzyme B cleavage of FN at 3.12 nM."}, "[6]": {"target": "T1, Granzyme B", "assay": "cleavage of endogenous HCASMC-derived ECM (fibronectin, decorin Western blot) by 100 nM Granzyme B +/- inhibitor", "assay_type": "biochemical", "conditions": "inhibitor at 150 μM", "experimental": "More specifically, as it relates to FIG. 18, to synthesize endogenous ECM, human coronary artery smooth muscle cells were seeded in 6 well plates and incubated at confluency for 7 days in serum starvation media (SMGM+0.2% FBS). Cells were removed from the plates by incubation with 0.25M Ammonium Hydroxide for 20 min. This treatment removes cells while leaving the surrounding extracellular matrix intact. Subsequently, 100 nM Granzyme B and the inhibitor of interest were incubated on the endogenous ECM for 24 h. Supernatants from the plates (containing cleavage fragments) were run on an SDS-PAGE gel and Western blotted for fibronectin or decorin. DMSO solvent control was not included due to redundancy. Asterisk=full length protein; Arrow=cleavage fragments, star denotes full length. […] Cells were removed from the plates by incubation with 0.25M Ammonium Hydroxide for 20 min. This treatment removes cells while leaving the surrounding extracellular matrix intact. Subsequently, 100 nM Granzyme B and the inhibitor of interest were incubated on the endogenous ECM for 24 h. Supernatants from the plates (containing cleavage fragments) were run on to an SDS-PAGE gel and Western blotted for fibronectin or decorin. DMSO solvent control was not included due to redundancy. Asterisk=full length protein; Arrow=cleavage fragments, star denotes full length."}},
  "note": "Entries after “also recorded” stand apart in the source; their conditions may differ.",
  "data": [
    {"smiles": "Cc1ccc(NC(=O)/C(O)=C(/C(=O)c2ccc3ccccc3c2)[C@H]2OC(=O)c3ccccc32)c(C)c1", "note": "(stereo in doubt) [ZINC05316154]", "values": [
      {"measurement": "IC50", "setting": "[1]", "result": "~195", "unit": "µM"}
    ]},
    {"smiles": "O=C(Nc1ccc(Cl)cc1Cl)/C(O)=C\\C(=O)[C@@H]1CCOC1=O", "note": "(stereo in doubt) [ZINC05605947]", "values": [
      {"measurement": "IC50", "setting": "[1]", "result": "~320", "unit": "µM"}
    ]},
    {"smiles": "O=c1oc(Cl)c(Cl)c2ccccc12", "note": "[DCI, 3,4-dichloroisocoumarin]", "values": [
      {"measurement": "Granzyme B-mediated cleavage of decorin, biglycan and betaglycan", "setting": "[2]; 200 μM DCI, 4 h and 24 h, room temperature, Ponceau stain", "result": "effectively inhibited"},
      {"measurement": "release of TGF-β from betaglycan/TGF-β complexes by Granzyme B", "setting": "[3]", "result": "partially inhibited"},
      {"measurement": "release of TGF-β from decorin, biglycan and betaglycan by Granzyme B", "setting": "[3]; 24 h incubation, Western blot of supernatants", "result": "not released; also recorded: inhibited; also recorded: no release evident"},
      {"measurement": "TGF-β signaling (SMAD-3 and Erk 1/2 phosphorylation) in HCASMC", "setting": "[4]", "result": "limited TGF-β signaling"}
    ]},
    {"smiles": "CC[C@H](C)[C@H](NC(=O)Cc1csc2ccccc12)C(=O)N[C@H]1CCc2cccc3c2N(C1=O)[C@H](C(=O)NCc1c[nH]nn1)C3", "note": "[Willoughby 20, Azepino[3,2,1-hi]indole-2-carboxamide, 5-[[(2S,3S)-2-[(2-benzo[b]thien-3-ylacetyl)amino]-3-methyl-1-oxopentyl]amino]-1,2,4,5,6,7-hexahydro-4-oxo-N-(1H-1,2,3-triazol-5-ylmethyl)-, (2S,5S)-]", "values": [
      {"measurement": "IC50", "setting": "[1]", "result": "~3.1", "unit": "µM"},
      {"measurement": "Granzyme B cleavage of decorin", "setting": "[2]; RT", "result": "Inhibits"},
      {"measurement": "Granzyme B cleavage of decorin", "setting": "[2]; RT, listed as compound 20", "result": "prevented"},
      {"measurement": "Granzyme B cleavage of betaglycan", "setting": "[2]; room temperature, 24 hours, 30 μl, Ponceau stain", "result": "inhibits"},
      {"measurement": "release of TGF-β from betaglycan/TGF-β complexes by Granzyme B", "setting": "[3]", "result": "inhibited"},
      {"measurement": "Granzyme B cleavage of fibronectin (FN)", "setting": "[5]", "result": "inhibits"}
    ]},
    {"smiles": "O=C1CCC(=O)/C(=C(/O)CCC(=O)Nc2cccc(Cl)c2)C1", "note": "[ZINC05315460]", "values": [
      {"measurement": "IC50", "setting": "[1]", "result": "~100", "unit": "µM"}
    ]},
    {"smiles": "CC(=O)CCC(=O)CC(=O)CCC(=O)Nc1cc(Cl)ccc1Cl", "note": "[ZINC05316859]", "values": [
      {"measurement": "IC50", "setting": "[1]", "result": "~250", "unit": "µM"}
    ]},
    {"smiles": "COC(=O)CC/C(O)=C(/C(=O)CCC(=O)Nc1ccc(Cl)cc1Cl)C(=O)OC", "note": "[ZINC05317216]", "values": [
      {"measurement": "IC50", "setting": "[1]", "result": "~50", "unit": "µM"}
    ]},
    {"smiles": "CCOc1ccccc1NC(=O)/C(O)=C(/C(=O)c1ccc2ccccc2c1)[C@@H]1OC(=O)c2ccccc21", "note": "[ZINC05398428]", "values": [
      {"measurement": "IC50", "setting": "[1]", "result": "~255", "unit": "µM"}
    ]},
    {"smiles": "Cc1ccc(NC(=O)/C(O)=C(/C(=O)c2ccc3ccccc3c2)[C@@H]2OC(=O)c3ccccc32)cc1C", "note": "[ZINC05723503]", "values": [
      {"measurement": "IC50", "setting": "[1]", "result": "~270", "unit": "µM"}
    ]},
    {"smiles": "CC(=O)c1ccccc1NC(=O)/C(O)=C(/C(=O)c1ccccc1-c1ccccc1)[C@@H]1OC(=O)c2ccccc21", "note": "[ZINC05723646]", "values": [
      {"measurement": "IC50", "setting": "[1]", "result": "~250", "unit": "µM"}
    ]},
    {"smiles": "CC(=O)c1ccc(NC(=O)/C(O)=C(\\C(=O)/C=C\\c2ccccc2)[C@@H]2OC(=O)c3ccccc32)cc1", "note": "[ZINC05723764]", "values": [
      {"measurement": "IC50", "setting": "[1]", "result": "~25", "unit": "µM"},
      {"measurement": "Granzyme B cleavage of betaglycan", "setting": "[2]; inhibitor at 100 μM, RT, 4 h", "result": "does not inhibit"},
      {"measurement": "decorin cleavage by Granzyme B", "setting": "[6]", "result": "effective"}
    ]},
    {"smiles": "Cc1ccc(NC(=O)/C(O)=C(/C(=O)/C=C/c2ccccc2)C2OC(=O)c3ccccc32)c(C)c1", "note": "(stereo not drawn) [ZINC05723787]", "values": [
      {"measurement": "IC50", "setting": "[1]", "result": "~40", "unit": "µM"},
      {"measurement": "Granzyme B cleavage of betaglycan", "setting": "[2]; inhibitor at 50 μM, RT, 4 h", "result": "partially inhibits"},
      {"measurement": "Granzyme B cleavage of betaglycan", "setting": "[2]; inhibitor at 100 μM, RT, 4 h", "result": "completely"}
    ]}
  ]
}
